We go through 10 compounds from PubChem BioAssay (NCI).

Molecules are shown by their SMILES. Values joined by “and” are separate entries in the source; they are usually repeats but may differ in a detail not shown here. Equal values may be shown once.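 Dose response: 5 concentrations. Exposure: 48 h. Format: 96-well plates. Endpoint: linear interpolation; highest concentration if not reached. Abbreviation: GI50, concentration required for 50% inhibition of growth. Definition used: TGI = concentration required for complete inhibition of growth.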

Common to all, as to assay: NCI anticancer screen, dose series, 48 h
Assay [1] relates to CAKI-1 renal.
Assay [2] has as its system COLO 205 colon.
In assay [3] the test system is HCT-116 colon.
For assay [4], the system named is HL-60(TB) leukemia.
The test system of assay [5] is HOP-62 NSCLC.
The subject of assay [6] is IGROV1 ovarian.
Assay [7] concerns OVCAR-3 ovarian.
The test system of assay [8] is OVCAR-5 ovarian.
Assay [9] has as its system SK-OV-3 ovarian.
For assay [10], the system named is UACC-257 melanoma.

Consider `O=[N+]([O-])c1cnc(Sc2ccncn2)c([N+](=O)[O-])c1`, for which the GI50 in assay [1] was 1.6 µM; in assay [2], 1.98 µM; in [3], 1.84 µM; in assay [4], 23.1 µM; in assay [5], 14.6 µM; in assay [6], 16.7 µM. The GI50 in assay [7] is 1.76 µM; in [8] it was 16.3 µM; in [9], 16.9 µM; in assay [10], 1.78 µM. For the same compound, the TGI was 3.07 µM in assay [1]; 3.58 µM in assay [2]; 3.59 µM in assay [3]; 62.9 µM in assay [4]; 28.1 µM in assay [5]; 31.4 µM in assay [6]. For the same compound, the TGI was determined as 3.17 µM in assay [7], 31.7 µM in assay [8], 31.1 µM in assay [9] and 3.38 µM in [10].

In the case of `CC(C)C[C@@H](NC(=O)[C@@H](Cc1ccccc1)NC(=O)c1cnccn1)B1O[C@H]2[C@H](O)[C@@H](C(=O)NCCCC[C@@H]3NC(=O)[C@@H](Cc4ccccc4)NC(=O)[C@H](CC(=O)O)NC(=O)CNC(=O)[C@H](CCCN=C(N)N)NC3=O)O[C@@H](CN)[C@H]2O1`, the GI50 is 0.00768 µM and 0.0148 µM in assay [1]; 0.0262 µM and 0.005 µM in assay [2]; 0.00339 µM and 0.005 µM in [3]; 0.0102 µM and 0.005 µM in assay [4]; 0.0125 µM and 0.0189 µM in [5]; 0.0312 µM and 0.0214 µM in assay [6]. For the same compound, the GI50 in assay [7] is 0.00339 µM and 0.005 µM; in assay [8], 0.0135 µM and 0.0196 µM; in assay [9] it was 0.0354 µM and 0.0148 µM; in [10], 0.0135 µM and 0.005 µM. The TGI in assay [1] was 0.0525 µM and 0.0905 µM; in [2] it was 0.373 µM and 0.119 µM; in assay [3], 0.0182 µM and 0.0103 µM; in assay [4], 0.0698 µM and 0.0743 µM; in assay [6] it was 0.254 µM and 1.03 µM; in [7], 0.0106 µM and 0.0104 µM. Also, the TGI in assay [8] is 0.0978 µM and 0.799 µM; in [9], 0.296 µM and 0.941 µM; in assay [10], 0.0812 µM and 0.0183 µM.

As for `OCCN(CCO)N=Nc1ccc(-c2nc3ccccc3[nH]2)cc1`, the GI50 is 17 µM in assay [1]; 22.9 µM in [2]; 25.3 µM in assay [3]; 10.8 µM in assay [4]; above 100 µM in assay [5]; 87.4 µM in assay [6]. For the same compound, the GI50 is 11 µM in assay [7], above 100 µM in assay [8], above 100 µM in [9] and 33.2 µM in [10]. For the same compound, the TGI in [1] is 60.6 µM; in assay [2] it was 70.4 µM; in [3], 64.3 µM; in assay [4], 32.1 µM; in assay [5] it was above 100 µM; in assay [6] it was above 100 µM. For the same compound, the TGI in assay [7] is 25.7 µM; in assay [8] it was above 100 µM; in [9], above 100 µM; in [10], above 100 µM.

As for `O=C(Cc1nc2ccccc2s1)C(=O)Nc1ccc(Cl)cc1`, the TGI in [1], in assay [2], in [3], in assay [4], in assay [5] and in assay [6] was above 100 µM each time. In addition, the TGI in assay [7], in assay [8], in assay [9] and in assay [10] was above 100 µM throughout.

As to `CN(C)CCCCN1CCc2c(n(C)c3ccccc23)C1=O`, the TGI in [1] is > 73.4 µM and 65.3 µM; in assay [2] it was 61.7 µM and 33 µM; in [3], 75.6 µM and 45.1 µM; in [4] it was above 100 µM; in assay [5], > 80.8 µM and 63.7 µM; in assay [6] it was above 100 µM. Besides, the TGI in assay [7] was above 100 µM; in [8], > 78.6 µM and 67.3 µM; in assay [9], above 95 µM; in assay [10] it was 28.7 µM and 31.4 µM. Also, the GI50 in [8] is 54.1 µM and 24.2 µM.

On to `CCC1=C(C)/C(=C/c2[nH]c(C)c(C(=O)CCCCC(=O)OC)c2C)N=C1c1ccc[nH]1`, for which the GI50 in [1] was 20.6 µM; in assay [2] it was 12.6 µM; in assay [3] it was 7.37 µM; in assay [4], 2.53 µM; in [5], 13.9 µM; in [6] it was 21.5 µM. In addition, the GI50 was 3.64 µM in assay [7], 21.1 µM in [8], 34.6 µM in assay [9] and 16.1 µM in [10]. The TGI in [1] is 45.8 µM; in [2], above 100 µM; in assay [3], above 50.1 µM; in assay [4], 9.28 µM; in [5], 28.5 µM; in [6] it was above 63.8 µM. The TGI was 18.5 µM in [7], above 67.2 µM in assay [8], above 80.6 µM in [9] and 44.2 µM in assay [10].

Take `COc1ccc2[nH]cc(CCNC(C)=O)c2c1`: the TGI in [1] was above 100 µM; in [2], 85.5 µM; in [3], above 100 µM; in [4], above 100 µM; in [5], above 100 µM; in [6], above 100 µM. The TGI in assay [7], in [8], in assay [9] and in assay [10] was above 100 µM in each case.

For the compound `CC(=O)N1CCC2(C=Nc3ccccc32)CC1`, the TGI in assay [1], in assay [2], in assay [3], in assay [4], in assay [5] and in assay [6] was above 100 µM in each case. Moreover, the TGI in [7], in assay [8], in assay [9] and in assay [10] was above 100 µM each time.

For `CSC(=S)c1ccc(C(=S)SC)cc1`, the TGI in [1], in assay [2], in assay [3], in assay [4], in assay [5] and in [6] was above 100 µM throughout. Further, the TGI in assay [7], in [8], in assay [9] and in [10] was above 100 µM each time.

As to `O=C(Nc1ccc(Cl)c(C(F)(F)F)c1)C(=O)C(C(=O)/C=C/c1ccccc1)C1OC(=O)c2ccccc21` (stereo not given), the TGI in assay [1], in assay [2], in [3], in [4], in [5] and in assay [6] was above 100 µM each time. The TGI in assay [7], in assay [8], in assay [9] and in [10] was above 100 µM each time.
